# Measured values published in publication PMC11784839, “Monoaminergic neurotransmitters are bimodal effectors of tau aggregation” (Science Advances, 2025).
# *1 amine or outer side, *2 acyl side, *3 side chain or, on linkers, in order; H or OH if unused. Where a SMILES comes first, the peptide text is derived from it. Bridges are numbered along the chain shown (N, C = ends). [ ]: non-standard residue; d: D form. hTyr(3S-OH,4S-OH,3'-OSO3H) = N[C@H](C(=O)O)[C@H](O)[C@@H](O)c1ccc(O)c(OS(=O)(=O)O)c1; Orn(4R-OH,5R-OH) = O=C([C@H](C[C@@H](O)[C@@H](O)N[*:3])N[*:1])[*:2]; Pro(3S-OH,4S-Me) = C[C@H]1CN[C@H](C(=O)O)[C@H]1O; Gln(3R-OH) = NC(=O)C[C@@H](O)[C@H](N)C(=O)O; Hyp = O=C(O)[C@@H]1C[C@@H](O)CN1
# Biological target: tau (Homo sapiens, UniProt P10636)
# Test: MCE Phenols Library screening, tau biosensor cell seeding assay (AvZ)
# Assay type: cell-based
# Conditions: for Z repl 1 / Z Repl 2: Z score; for Z repl 1 / raw data 1: replicate 1; for Z Repl 2 / raw data 2: replicate 2; for AvZ (average z score of seeding, SDs from the mean level of seeding): 10 μM phenol in cell cultures, AD brain homogenate preincubated 16 hours, two biological replicates, positive = catalyzes seeding, negative = inhibits
# [1] = average Z score of the two replicates, MCE Phenols Library screen
# [2] = average puncta of the two replicates
# [3] = average Z score of two replicates, Phenols Library screen
# [4] = average Z score of the two replicates, tau seeding
# [5] = average Z score of the two replicates, tau biosensor seeding, MCE Phenols Library screen
# tau, sequence (P10636 623-695 limits assumed): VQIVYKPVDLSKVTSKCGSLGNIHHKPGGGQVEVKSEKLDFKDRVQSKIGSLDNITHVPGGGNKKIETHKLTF
compound,measurement,setting,value
O=c1oc2c(O)c(O)cc3c(=O)oc4c(O)c(O)cc1c4c23 [Ellagic acid],Z repl 1,,-1.043
same,Z Repl 2,,-0.067
same,av Z,[1],-0.555
same,av puncta,[2],12935.6
same,raw data 1,puncta,13826.2
same,raw data 2,puncta,12045.1
Cc1cc(O)c2c(c1)C(=O)c1cc(O)cc(O[C@@H]3O[C@H](CO)[C@@H](O)[C@H](O)[C@H]3O)c1C2=O [Emodin-8-glucoside],Z repl 1,,0.113
same,Z Repl 2,,-0.367
same,av Z,[3],-0.127
same,av puncta,average of raw data 1 and 2,18275.8
same,raw data 1,puncta,27700.1
same,raw data 2,puncta,8851.57
Cc1cc(O)c2c(c1)C(=O)c1cc(O)cc(O)c1C2=O [Emodin],Z repl 1,,0.139
same,Z Repl 2,,-0.692
same,av Z,[1],-0.277
same,av puncta,[2],16696.4
same,raw data 1,raw puncta,28020.6
same,raw data 2,raw puncta,5372.21
COc1ccc(-c2oc3c(CC=C(C)C)c(O[C@@H]4O[C@H](CO)[C@@H](O)[C@H](O)[C@H]4O)cc(O)c3c(=O)c2O[C@@H]2O[C@@H](C)[C@H](O)[C@@H](O)[C@H]2O[C@@H]2O[C@H](CO)[C@@H](O)[C@H](O)[C@H]2O)cc1 [Epimedin A],Z repl 1,,-1.302
same,Z Repl 2,,-0.744
same,av Z,[1],-1.023
same,av puncta,average of raw data 1 and 2,7768.23
same,raw data 1,puncta,10713.2
same,raw data 2,puncta,4823.23
COc1ccc(-c2oc3c(CC=C(C)C)c(O[C@@H]4O[C@H](CO)[C@@H](O)[C@H](O)[C@H]4O)cc(O)c3c(=O)c2O[C@@H]2O[C@@H](C)[C@H](O)[C@@H](O)[C@H]2O[C@@H]2OC[C@@H](O)[C@H](O)[C@H]2O)cc1 [Epimedin B],Z repl 1,,0.357
same,Z Repl 2,,0.482
same,av Z,[4],0.42
same,av puncta,average of raw data 1 and 2,24278.7
same,raw data 1,puncta,30639
same,raw data 2,puncta,17918.4
CC(C)=CCc1c(O[C@@H]2O[C@H](CO)[C@@H](O)[C@H](O)[C@H]2O)cc(O)c2c(=O)c(O[C@@H]3O[C@@H](C)[C@H](O)[C@@H](O)[C@H]3O)c(-c3ccc(O)cc3)oc12 [Epimedoside A],Z repl 1,,0.582
same,Z Repl 2,,-0.181
same,av Z,[4],0.2
same,av puncta,average of raw data 1 and 2,22081.1
same,raw data 1,puncta,33332
same,raw data 2,puncta,10830.3
O=C1C[C@@H](c2ccc(O)c(O)c2)Oc2cc(O[C@@H]3O[C@H](CO)[C@@H](O)[C@H](O)[C@H]3O)cc(O)c21 [Eriodictyol-7-O-glucoside],Z repl 1,,-0.303
same,Z Repl 2,,0.417
same,av Z,[3],0.057
same,av puncta,average of raw data 1 and 2,19967.8
same,raw data 1,puncta,22716.1
same,raw data 2,puncta,17219.4
O=C1C[C@@H](c2ccc(O)c(O)c2)Oc2cc(O)cc(O)c21 [Eriodictyol],Z repl 1,,-0.756
same,Z Repl 2,,0.192
same,av Z,[1],-0.282
same,av puncta,[2],16042.6
same,raw data 1,raw puncta,17267.7
same,raw data 2,raw puncta,14817.6
O=c1ccc2cc(O)c(O)cc2o1 [Esculetin],Z repl 1,,-0.338
same,Z Repl 2,,-0.78
same,av Z,[1],-0.559
same,av puncta,[2],13364.4
same,raw data 1,puncta,22288.3
same,raw data 2,puncta,4440.46
C[C@]12CC[C@@H]3c4ccc(O)cc4CC[C@H]3[C@@H]1C[C@@H](O)[C@@H]2O [Estriol],Z repl 1,,0.006
same,Z Repl 2,,0.639
same,av Z,[4],0.322
same,av puncta,average of raw data 1 and 2,23004.4
same,raw data 1,puncta,26418.8
same,raw data 2,puncta,19589.9
CCOC(=O)c1cc(O)c(O)c(O)c1 [Ethyl gallate],"AvZ (average z score of seeding, SDs from the mean level of seeding)",,-0.79
same,Z repl 1,,-0.43
same,Z Repl 2,,-1.15
same,av puncta,average of raw data 1 and 2,10837.2
same,raw data 1,puncta,21190.3
same,raw data 2,puncta,484.087
C#C[C@]1(O)CC[C@H]2[C@@H]3CCc4cc(O)ccc4[C@H]3CC[C@@]21C [Ethynyl Estradiol],Z repl 1,,0.578
same,Z Repl 2,,0.204
same,av Z,[4],0.391
same,av puncta,average of raw data 1 and 2,24116.9
same,raw data 1,puncta,33285.2
same,raw data 2,puncta,14948.5
C=CCc1ccc(O)c(OC)c1 [Eugenol],"AvZ (average z score of seeding, SDs from the mean level of seeding)",,-0.624
same,Z repl 1,,-0.386
same,Z Repl 2,,-0.861
same,av puncta,[2],12641.9
same,raw data 1,puncta,21709.5
same,raw data 2,puncta,3574.2
COc1ccc(-c2cc(=O)c3c(O)c(OC)c(O)cc3o2)cc1OC [Eupatilin],Z repl 1,,0.583
same,Z Repl 2,,0.288
same,av Z,[4],0.436
same,av puncta,average of raw data 1 and 2,24597.1
same,raw data 1,puncta,33348.4
same,raw data 2,puncta,15845.8
COc1ccc(-c2cc(=O)c3c(O)c(OC)c(OC)cc3o2)cc1O [Eupatorin],Z repl 1,,0.938
same,Z Repl 2,,0.779
same,av Z,[5],0.859
same,av puncta,average of raw data 1 and 2,29352.8
same,raw data 1,puncta,37615.7
same,raw data 2,puncta,21089.9
"C[C@@H](O)[C@@H]1NC(=O)[C@@H](N)C[C@@H](O)[C@@H](O)NC(=O)[C@@H]2[C@@H](O)[C@@H](C)CN2C(=O)[C@H]([C@H](O)CC(N)=O)NC(=O)[C@H]([C@H](O)[C@@H](O)c2ccc(O)c(OS(=O)(=O)O)c2)NC(=O)[C@@H]2C[C@@H](O)CN2C1=O [FR179642] (H-[Orn(4R-OH,5R-OH)]T[Hyp][hTyr(3S-OH,4S-OH,3'-OSO3H)][Gln(3R-OH)][Pro(3S-OH,4S-Me)]; lactam 1-C)",Z repl 1,,1.095
same,Z Repl 2,,0.887
same,av Z,[5],0.991
same,av puncta,average of raw data 1 and 2,30866.7
same,raw data 1,puncta,39497.8
same,raw data 2,puncta,22235.7
Cc1c(O)c(C)c2c(c1O)C(=O)C[C@@H](c1ccc(O)cc1)O2 [Farrerol],Z repl 1,,-0.382
same,Z Repl 2,,-0.766
same,av Z,[1],-0.574
same,av puncta,[2],13173.8
same,raw data 1,puncta,21763
same,raw data 2,puncta,4584.63
COc1cc(/C=C/C(=O)[O-])ccc1O.[Na+] [Ferulic acid (sodium)],"AvZ (average z score of seeding, SDs from the mean level of seeding)",,-0.669
same,Z repl 1,,-1.081
same,Z Repl 2,,-0.257
same,av puncta,[2],11696.2
same,raw data 1,puncta,13369.9
same,raw data 2,puncta,10022.5
COc1cc(/C=C/C(=O)O)ccc1O [Ferulic acid],"AvZ (average z score of seeding, SDs from the mean level of seeding)",,-0.451
same,Z repl 1,,-0.555
same,Z Repl 2,,-0.346
same,av puncta,[2],14374.8
same,raw data 1,raw puncta,19680.6
same,raw data 2,raw puncta,9068.99
CCc1c(Cl)c(O)c(Cl)c(O)c1C(=O)O[C@H]1[C@H](O)[C@H](OC)[C@H](OC/C2=C\C=C\C[C@H](O)/C(C)=C/[C@H](CC)[C@@H](O[C@@H]3OC(C)(C)[C@@H](OC(=O)C(C)C)[C@H](O)[C@@H]3O)/C(C)=C/C(C)=C/C[C@@H]([C@@H](C)O)OC2=O)O[C@@H]1C [Fidaxomicin],Z repl 1,,0.356
same,Z Repl 2,,0.717
same,av Z,[4],0.537
same,av puncta,average of raw data 1 and 2,25523.7
same,raw data 1,puncta,30618.6
same,raw data 2,puncta,20428.7
O=c1c(O)c(-c2ccc(O)c(O)c2)oc2cc(O)ccc12 [Fisetin],Z repl 1,,-1.392
same,Z Repl 2,,-0.758
same,av Z,[1],-1.075
same,av puncta,average of raw data 1 and 2,7157.01
same,raw data 1,puncta,9642.85
same,raw data 2,puncta,4671.16
O=C1C[C@@H](c2ccc(O)c(O)c2)Oc2c1ccc(O[C@@H]1O[C@H](CO)[C@@H](O)[C@H](O)[C@H]1O)c2O [Flavanomarein],Z repl 1,,-0.895
same,Z Repl 2,,-0.498
same,av Z,[1],-0.697
same,av puncta,[2],11525.3
same,raw data 1,puncta,15599.3
same,raw data 2,puncta,7451.23
COc1cc(O)c(C(=O)/C=C/c2ccccc2)c(OC)c1 [Flavokawain B],Z repl 1,,-0.296
same,Z Repl 2,,-0.062
same,av Z,[3],-0.179
same,av puncta,average of raw data 1 and 2,17449.7
same,raw data 1,puncta,22793.1
same,raw data 2,puncta,12106.3
COc1cc(O)c(C(=O)/C=C/c2ccc(O)cc2)c(OC)c1 [Flavokawain C],Z repl 1,,-0.666
same,Z Repl 2,,-0.177
same,av Z,[1],-0.422
same,av puncta,[2],14614.7
same,raw data 1,raw puncta,18356
same,raw data 2,raw puncta,10873.4
